Assay results from patent US10081624B2, “Heterocyclic compound” (Takeda Pharmaceutical Company Limited, priority 2014, dated 2018).

Columns and labels:
HDAC6 enzyme = biological target: T1, HDAC6 enzyme (Homo sapiens, UniProt Q9UBN7); experiment: HDAC6 enzyme inhibitory assay (HDAC-Glo I/II Assay kit); format: biochemical; conditions: 1 μM test compound; for inhibition at 1 µM: read-out: HDAC6 inhibitory rate (%) (1 μM)
T1 construct: prepared by transducing full length HDAC1 and HDAC6 genes into Sf-9 insect cells; GST; purchased SignalChem; host or cells: Sf-9 insect cells
T1 sequence (Q9UBN7 1-1215): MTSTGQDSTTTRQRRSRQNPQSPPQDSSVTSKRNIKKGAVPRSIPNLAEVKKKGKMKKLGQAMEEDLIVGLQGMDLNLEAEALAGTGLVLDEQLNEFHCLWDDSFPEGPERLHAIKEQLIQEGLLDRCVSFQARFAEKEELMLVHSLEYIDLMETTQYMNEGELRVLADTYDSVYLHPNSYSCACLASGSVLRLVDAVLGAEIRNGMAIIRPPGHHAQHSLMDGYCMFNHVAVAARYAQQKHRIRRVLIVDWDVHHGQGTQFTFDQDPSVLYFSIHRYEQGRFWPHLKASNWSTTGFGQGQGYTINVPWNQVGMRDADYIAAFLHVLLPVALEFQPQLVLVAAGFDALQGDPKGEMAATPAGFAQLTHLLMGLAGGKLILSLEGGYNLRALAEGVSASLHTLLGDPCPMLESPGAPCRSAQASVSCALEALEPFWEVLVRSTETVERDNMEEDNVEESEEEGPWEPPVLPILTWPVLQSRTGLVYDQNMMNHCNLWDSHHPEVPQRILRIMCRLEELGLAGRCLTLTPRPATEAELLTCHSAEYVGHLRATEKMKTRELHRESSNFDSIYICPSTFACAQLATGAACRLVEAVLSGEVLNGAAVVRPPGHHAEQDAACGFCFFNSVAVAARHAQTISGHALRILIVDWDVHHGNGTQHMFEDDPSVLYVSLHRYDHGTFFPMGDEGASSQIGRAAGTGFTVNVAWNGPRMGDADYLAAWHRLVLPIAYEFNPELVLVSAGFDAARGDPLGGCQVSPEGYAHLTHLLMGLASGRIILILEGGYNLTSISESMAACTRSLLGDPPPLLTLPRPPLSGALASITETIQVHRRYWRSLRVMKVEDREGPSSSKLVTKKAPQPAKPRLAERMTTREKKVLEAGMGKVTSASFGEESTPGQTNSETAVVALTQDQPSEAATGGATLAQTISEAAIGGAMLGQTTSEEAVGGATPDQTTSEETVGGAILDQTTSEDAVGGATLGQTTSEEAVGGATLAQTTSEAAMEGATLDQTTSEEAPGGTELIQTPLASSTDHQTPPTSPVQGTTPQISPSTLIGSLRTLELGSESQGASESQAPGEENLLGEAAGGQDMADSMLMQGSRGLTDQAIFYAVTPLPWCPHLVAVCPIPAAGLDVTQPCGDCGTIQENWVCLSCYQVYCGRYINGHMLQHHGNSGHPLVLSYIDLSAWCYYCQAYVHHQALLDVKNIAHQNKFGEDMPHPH
Outline: (§1)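 Luminescence read-out: 20 min after adding HDAC-Glo substrate-developer at room temperature. Before that, compound and Sf-9-expressed, GST-purified full-length HDAC1 or HDAC6 sat together 60 min in pH 7.5 Tris buffer. Inhibition is relative to no-enzyme wells taken as 100%.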

HDAC1 enzyme = biological target: T2, HDAC1 enzyme (Homo sapiens, UniProt Q13547); experiment: HDAC1 enzyme inhibitory assay (HDAC-Glo I/II Assay kit); format: biochemical; conditions: 1 μM test compound; for inhibition at 1 µM: read-out: HDAC1 inhibitory rate (%) (1 μM)
T2 construct: prepared by transducing full length HDAC1 and HDAC6 genes into Sf-9 insect cells; GST; purchased SignalChem; host or cells: Sf-9 insect cells
Outline: as §1

T2 sequence (Q13547 whole entry): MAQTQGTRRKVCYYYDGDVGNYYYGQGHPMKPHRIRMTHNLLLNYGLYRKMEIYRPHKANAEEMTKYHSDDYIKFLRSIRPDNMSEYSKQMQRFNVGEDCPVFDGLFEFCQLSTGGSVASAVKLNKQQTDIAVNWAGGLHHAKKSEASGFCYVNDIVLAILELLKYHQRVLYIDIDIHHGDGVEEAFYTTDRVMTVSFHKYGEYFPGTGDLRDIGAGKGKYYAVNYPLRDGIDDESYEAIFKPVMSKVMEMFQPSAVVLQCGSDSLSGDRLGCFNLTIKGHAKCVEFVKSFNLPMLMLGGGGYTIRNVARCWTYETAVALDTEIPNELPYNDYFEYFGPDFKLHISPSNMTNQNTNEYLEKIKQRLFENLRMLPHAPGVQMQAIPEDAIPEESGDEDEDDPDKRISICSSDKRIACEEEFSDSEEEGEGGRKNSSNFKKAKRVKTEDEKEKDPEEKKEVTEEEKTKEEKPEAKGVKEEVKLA

| SMILES | inhibition at 1 µM (HDAC6 enzyme) | inhibition at 1 µM (HDAC1 enzyme) | also measured |
| --- | --- | --- | --- |
| O=C(NC[C@H]1COCCN1C(=O)N1CCC(c2ccccc2)C1)c1ccc(-c2noc(C(F)(F)F)n2)cc1 (stereo partly drawn) [Example 293, N-(((3S)-4-((3-phenylpyrrolidin-1-yl)carbonyl)morpholin-3-yl)methyl)-4-(5-(trifluoromethyl)-1,2,4-oxadiazol-3-yl)benzamide] | 90% | 14% |  |
| O=C(NC[C@H]1COCCN1C(=O)N1CCC(c2cccnc2)C1)c1ccc(-c2noc(C(F)(F)F)n2)cc1 (stereo partly drawn) [Example 294, N-(((3S)-4-((3-(pyridin-3-yl)pyrrolidin-1-yl)carbonyl)morpholin-3-yl)methyl)-4-(5-(trifluoromethyl)-1,2,4-oxadiazol-3-yl)benzamide] | 82% | 5% |  |
| O=C(NC[C@H]1COCCN1C(=O)N1CCC(c2ccncc2)C1)c1ccc(-c2noc(C(F)(F)F)n2)cc1 (stereo partly drawn) [Example 295, N-(((3S)-4-((3-(pyridin-4-yl)pyrrolidin-1-yl)carbonyl)morpholin-3-yl)methyl)-4-(5-(trifluoromethyl)-1,2,4-oxadiazol-3-yl)benzamide] | 85% | 8% |  |
| O=C(NC[C@H]1COCCN1C(=O)c1ccnn1CCO)c1ccc(-c2noc(C(F)(F)F)n2)cc1 [Example 296, N-(((3S)-4-((1-(2-hydroxyethyl)-1H-pyrazol-5-yl)carbonyl)morpholin-3-yl)methyl)-4-(5-(trifluoromethyl)-1,2,4-oxadiazol-3-yl)benzamide] | 100% | 32% |  |
| Cn1nccc1CC(=O)N1CCOC[C@@H]1CNC(=O)c1ccc(-c2noc(C(F)(F)F)n2)cc1 [Example 297, N-(((3S)-4-((1-methyl-1H-pyrazol-5-yl)acetyl)morpholin-3-yl)methyl)-4-(5-(trifluoromethyl)-1,2,4-oxadiazol-3-yl)benzamide] | 93% | 5% |  |
| O=C(NC[C@H]1COCCN1C(=O)N1CCC(CO)C1)c1ccc(-c2noc(C(F)(F)F)n2)cc1 (stereo partly drawn) [Example 298, N-(((3S)-4-((3-(hydroxymethyl)pyrrolidin-1-yl)carbonyl)morpholin-3-yl)methyl)-4-(5-(trifluoromethyl)-1,2,4-oxadiazol-3-yl)benzamide] | 88% | 3% |  |
| O=C(NC[C@H]1COCCN1C(=O)N1CCC(CO)C1)c1ccc(-c2noc(C(F)(F)F)n2)cc1 (stereo partly drawn) [Example 299, N-(((3S)-4-((3-(hydroxymethyl)pyrrolidin-1-yl)carbonyl)morpholin-3-yl)methyl)-4-(5-(trifluoromethyl)-1,2,4-oxadiazol-3-yl)benzamide] |  |  | HDAC6 inhibitory rate (%) (1 μM) (HDAC6 enzyme; 1 µM): 94%; HDAC1 inhibitory rate (%) (1 μM) (HDAC1 enzyme; 1 µM): 4% |
| O=C(NC[C@H]1COCCN1C(=O)N1CCC(CCO)C1)c1ccc(-c2noc(C(F)(F)F)n2)cc1 (stereo partly drawn) [Example 300, N-(((3S)-4-((3-(2-hydroxyethyl)pyrrolidin-1-yl)carbonyl)morpholin-3-yl)methyl)-4-(5-(trifluoromethyl)-1,2,4-oxadiazol-3-yl)benzamide] | 90% | 4% |  |
| O=C(NC[C@H]1COCCN1C(=O)N1CCC(CCO)C1)c1ccc(-c2noc(C(F)(F)F)n2)cc1 (stereo partly drawn) [Example 301, N-(((3S)-4-((3-(2-hydroxyethyl)pyrrolidin-1-yl)carbonyl)morpholin-3-yl)methyl)-4-(5-(trifluoromethyl)-1,2,4-oxadiazol-3-yl)benzamide] |  |  | HDAC6 inhibitory rate (%) (1 μM) (HDAC6 enzyme; 1 µM): 92%; HDAC1 inhibitory rate (%) (1 μM) (HDAC1 enzyme; 1 µM): 3% |
| O=C(NC[C@H]1COCCN1C(=O)c1cccc(OCCO)c1)c1ccc(-c2noc(C(F)(F)F)n2)cc1 [Example 302, N-(((3S)-4-(3-(2-hydroxyethoxy)benzoyl)morpholin-3-yl)methyl)-4-(5-(trifluoromethyl)-1,2,4-oxadiazol-3-yl)benzamide] | 98% | 10% |  |
| O=C(NC[C@H]1COCCN1C(=O)N1CCCCC1CO)c1ccc(-c2noc(C(F)(F)F)n2)cc1 (stereo partly drawn) [Example 303, N-(((3S)-4-((2-(hydroxymethyl)piperidin-1-yl)carbonyl)morpholin-3-yl)methyl)-4-(5-(trifluoromethyl)-1,2,4-oxadiazol-3-yl)benzamide] | 99% | 8% |  |
| O=C(NC[C@H]1COCCN1C(=O)N1CCCCC1CO)c1ccc(-c2noc(C(F)(F)F)n2)cc1 (stereo partly drawn) [Example 304, N-(((3S)-4-((2-(hydroxymethyl)piperidin-1-yl)carbonyl)morpholin-3-yl)methyl)-4-(5-(trifluoromethyl)-1,2,4-oxadiazol-3-yl)benzamide] |  |  | HDAC6 inhibitory rate (%) (1 μM) (HDAC6 enzyme): 99%; HDAC1 inhibitory rate (%) (1 μM) (HDAC1 enzyme; 1 µM): 9% |
| O=C(NC[C@H]1COCCN1C(=O)N1CCCC1CCO)c1ccc(-c2noc(C(F)(F)F)n2)cc1 (stereo partly drawn) [Example 305, N-(((3S)-4-((2-(2-hydroxyethyl)pyrrolidin-1-yl)carbonyl)morpholin-3-yl)methyl)-4-(5-(trifluoromethyl)-1,2,4-oxadiazol-3-yl)benzamide] | 99% | 5% |  |
| O=C(NC[C@H]1COCCN1C(=O)N1CCCC1CCO)c1ccc(-c2noc(C(F)(F)F)n2)cc1 (stereo partly drawn) [Example 306, N-(((3S)-4-((2-(2-hydroxyethyl)pyrrolidin-1-yl)carbonyl)morpholin-3-yl)methyl)-4-(5-(trifluoromethyl)-1,2,4-oxadiazol-3-yl)benzamide] |  |  | HDAC6 inhibitory rate (%) (1 μM) (HDAC6 enzyme; 1 µM): 88%; HDAC1 inhibitory rate (%) (1 μM) (HDAC1 enzyme): 5% |
| O=C(NC[C@H]1COCCN1C(=O)N1CCCC(F)(F)C1)c1ccc(-c2noc(C(F)(F)F)n2)cc1 [Example 307, N-(((3S)-4-((3,3-difluoropiperidin-1-yl)carbonyl)morpholin-3-yl)methyl)-4-(5-(trifluoromethyl)-1,2,4-oxadiazol-3-yl)benzamide] | 98% | 9% |  |
| Cc1oc2ccccc2c1C(=O)N1CCOC[C@@H]1CNC(=O)c1ccc(-c2noc(C(F)(F)F)n2)cc1 [Example 308, N-(((3S)-4-((2-methyl-1-benzofuran-3-yl)carbonyl)morpholin-3-yl)methyl)-4-(5-(trifluoromethyl)-1,2,4-oxadiazol-3-yl)benzamide] | 100% | 46% |  |
| O=C(NC[C@H]1COCCN1C(=O)N1CC2C(C1)C2(F)F)c1ccc(-c2noc(C(F)(F)F)n2)cc1 (stereo partly drawn) [Example 309, N-(((3S)-4-((6,6-difluoro-3-azabicyclo[3.1.0]hex-3-yl)carbonyl)morpholin-3-yl)methyl)-4-(5-(trifluoromethyl)-1,2,4-oxadiazol-3-yl)benzamide] | 96% | 4% |  |
| O=C(NC[C@H]1COCCN1C(=O)N1CCOCC1CO)c1ccc(-c2noc(C(F)(F)F)n2)cc1 (stereo partly drawn) [Example 310, N-(((3S)-4-((3-(hydroxymethyl)morpholin-4-yl)carbonyl)morpholin-3-yl)methyl)-4-(5-(trifluoromethyl)-1,2,4-oxadiazol-3-yl)benzamide] | 98% |  | HDAC1 inhibitory rate (%) (1 μM) (HDAC1 enzyme; 1 µM): 3% |
| O=C(NC[C@H]1COCCN1C(=O)N1CCOCC1CO)c1ccc(-c2noc(C(F)(F)F)n2)cc1 (stereo partly drawn) [Example 311, N-(((3S)-4-((3-(hydroxymethyl)morpholin-4-yl)carbonyl)morpholin-3-yl)methyl)-4-(5-(trifluoromethyl)-1,2,4-oxadiazol-3-yl)benzamide] |  |  | HDAC6 inhibitory rate (%) (1 μM) (HDAC6 enzyme; 1 µM): 96%; HDAC1 inhibitory rate (%) (1 μM) (HDAC1 enzyme; 1 µM): 7% |
